Measurements reported in patent US12187762B2, “Dithiolsaccharide mucolytic agents and uses thereof” (The Regents of the University of California, priority 2018, dated 2025).
Entries after “also recorded” stand apart in the source; their conditions may differ.

Key:
[1] = Cone-and-plate rheology of elastic modulus (G′) in thiolated hydrogel substrate; conditions: for concentration needed to cause a 40% decrease in the G′ of the hydrogel (ΔG′=−40%): 30 min incubation, dose response 0.5-10 mM
Protocol: 2.2. Preparation of thiolated hyaluronic acid hydrogel as a model substrate: Thiolated hyaluronic acid hydrogel (Glycosil®, ESI-BIO) was solubilized in 10% DMSO/75 mM NaCl/sodium phosphate pH 7.4 buffer, prepared using degassed water. Aliquots of 250 microliter of gel solution were distributed to 1.5 ml centrifuge tubes, sealed, and incubated overnight (˜18 hours) at room temperature to allow for slow oxidation and cross-linking of the hydrogel. Gels formed by this protocol typically yielded elastic moduli of 20-30 Pa, measured by cone-and-plate rheology.
2.3. Rheological measurements: A rheometer was employed to determine the effect of the compounds disclosed herein on the elastic modulus (G′) of ex vivo human sputum or model hydrogel substrate. The terms “elastic modulus”, G′, and the like refer to the elastic modulus as known in the art. Rheological measurements were made with AR2000 or DHR cone-and-plate rheometer (TA instruments), as known in the art. For sputum samples, ˜0.8 mL was used per assay, with 40 mm 2° geometry. For thiolated hydrogel samples, 0.25 mL was used per assay, with 40 mm ½° geometry. For timesweep recordings, a solvent trap with water as solvent was employed to minimize drying. Test compounds were dissolved in water and added at 10% v/v, to result in the final concentration of interest in the sample. The effect of test compound was measured by taking measurements every 2 min, for a period of 30 min. Normalized ratio % G′ was calculated by dividing the post treatment measurement of G′ at particular timepoint by pretreatment measurement of G′. Percent change in elastic modulus (% ΔG′) was calculated by comparing the measurement at 30 min to the initial pretreatment baseline.
Rheological measurements with Compound 1, Compound 5, Compound 9 and N-acetylcysteine at concentrations between 0.5-10 mM were conducted in order to understand the dose dependence of mucolytic efficacy on concentration of the dithiol test agents (FIG. 3). Effective concentration that causes 40% change in G′ for each test agent was determined. All dithiols tested cause 40% change in G′ at concentrations <1 mM, while NAC requires ˜8-10× higher dose to achieve the same mucolytic effect.
Mucolytic efficacy data was collected in cross-linked thiolated hydrogel model system for multiple enabled dithiolsaccharide compounds and N-acetylcysteine at 5 mM.

[2] = tested on: primary human airway epithelial cells (AECs); assay: G6PD release cytotoxicity assay in airway epithelial cells at air-liquid interface; type: cell-based; conditions: Compound 1 disodium salt, apical exposure 1 hr at 37° C. at 5, 25 and 50 mM, 6 hr recovery; compared with PBS control
Protocol: Briefly, primary tracheobronchial epithelial cells from ten donors were expanded in culture and differentiated at air-liquid interface for 21 days. Detailed cell culture protocols for airway epithelial cells can be found in Lachowicz-Scroggins et al, Cell Discov, 4, Article 7, 2018 and Widdicombe et al, Biotechniques, 39, 249-255, 2005. Compound 1 (disodium salt) was dissolved in PBS, added to apical surface of the cells at 5, 25 and 50 mM and left for 1 hr at 37° C. PBS was negative control. The apical and basolateral surfaces were washed with PBS, fresh media was added to basolateral side for 6 hr recovery period and collected for G6PD measurements. One control filter was harvested for full lysis with NP-40 lysis buffer to measure total G6PD content in cell lysates.
G6PD (glucose 6-phosphase dehydrogenase) release is a common method of assessing the extent of cellular damage or death. G6PD was measured using Vybrant® Cytotoxicity Assay Kit (ThermoFisher Scientific) and expressed as percent released relative to the total G6PD content.

[3] = tested on: C57BL/6 mice; assay: In vivo safety assessment, mouse intranasal (pulmonary) delivery model
Protocol: Body weights were recorded on days 1, 8 and 15. On day 15, BAL was performed and used for total and differential cell counts. Mice were euthanized on day 15, and whole lung was fixed in 10% formalin, embedded in paraffin, sectioned and H&E stained for subsequent injury scoring by board-certified lung pathologist (Table 1B provides scoring criteria). Scoring was done blindly. Sera were obtained from blood collected by cardiac puncture and tested for renal and metabolic function outcomes.
Table 1. […] Safety outcomes in mouse pulmonary delivery model (A). […] Outcome measures of safety included body weight, renal function tests, measures of lung injury in bronchoalveolar lavage (BAL), and histologic appearance of tissue sections from formalin-fixed and paraffin-embedded lungs.

[4] = mean ± SEM, BAL on day 15, intranasal 30 μL, 25 mM, 10 doses
[5] = mean ± SEM, serum, intranasal 30 μL, 25 mM, 10 doses

In the case of `OC1C(O)[C@H](S)OC(CS)[C@@H]1O` (stereo partly drawn) [Compound 1, 1,6-dithio-6-deoxy-β-D-galactopyranose], the “concentration needed to cause a 40% decrease in the G′ of the hydrogel (ΔG′=−40%)” value [1] is reported as 0.7 mM, the “% release of G6PD (cell toxicity)” value [2] is reported as “minimal and similar to that of the Phosphate Buffered Saline (PBS) control; also recorded: low and similar to the PBS control” and the “systemic or lung toxicity compared to control saline” value ([3]; intranasal 30 μL of 25 mM daily, 10 doses over 2 weeks, N=10 mice) is reported as “did not cause any discernible systemic or lung toxicity”. For the same compound, the “BAL Eosinophil %” value [3, 4] was 0 ± 0%, the “BAL Lymphocyte %” value [3, 4] was 0 ± 0.1% and the “BAL Macrophage %” value [3, 4] was 100 ± 0.1%. The “BAL Neutrophil %” value [3, 4] was 0 ± 0%, the “BAL total cell count” value [3, 4] was “(37.3 ± 7) × 10^4” and the “Lung Injury Score” value ([3]; mean ± SEM, blinded histology score 0-4 per Table 1B, day 15, intranasal 30 μL, 25 mM, 10 doses) was 0.4 ± 0.16. The Body weight ([3]; mean ± SEM, intranasal 30 μL, 25 mM, 10 doses over 2 weeks) was 18.6 ± 0.32 g, the “Blood urea nitrogen (renal function test)” value [3, 5] was 25 ± 1.3 mg/dL and the “Creatinine (renal function test)” value [3, 5] was 0.15 ± 0.01 mg/dL.
In the case of `OC1C(O)[C@H](O)C(CS)O[C@@H]1O[C@H]1OC(CS)[C@@H](O)C(O)C1O` (stereo partly drawn) [Compound 5, 6,6′-dithio-6,6′-dideoxy-α,α-trehalose], the “concentration needed to cause a 40% decrease in the G′ of the hydrogel (ΔG′=−40%)” value [1] is reported as 1.0 mM.
For `CO[C@]1(CS)O[C@H](CS)C(O)C1O` (stereo partly drawn) [Compound 9, Methyl-1,6-dithio-1,6-dideoxy-β-D-fructofuranoside], the “concentration needed to cause a 40% decrease in the G′ of the hydrogel (ΔG′=−40%)” value [1] was 0.7 mM.
With `CC(=O)N[C@@H](CS)C(=O)O` [NAC, N-acetylcysteine, reference compound] the “concentration needed to cause a 40% decrease in the G′ of the hydrogel (ΔG′=−40%)” value [1] was 8 mM and the “dose of NAC relative to dithiols needed to achieve the same mucolytic effect (40% change in G′)” value ([1]; fold higher dose than dithiols) was 8-10 ×.
